Measured values published in US20030138935A1, “Selective deactivation of yeast in corn wet milling process slurries” (priority 2002, published 2003).
“And” between values parts separate entries of the source, which are not always exact repeats. Identical values can stand only once.

Tests used:
[1] = system: gas-producing microorganisms in corn wet milling heavy steepwater; assay: Flask Pressure Profile (gas production in heavy steepwater); format: cell-based, yeast; conditions: for Manometer readings: 100° F.
Method: All tests were conducted using heavy […] samples provided by a major U.S. corn wet milling facility. A Flask Pressure Profile method was developed and used to measure changes in gas production. The sample of heavy […] to an Erlenmeyer flask, then placed into a water bath at 100° F. and agitated slowly (30-40 rpm). The flask was connected to a U-tube manometer filled with distilled water. […] An increase in flask pressure indicated gas-producing microbial activity. Tests using octanoic acid were performed in […] ppm (control), 10 ppm, 25 ppm, and 50 ppm (active).

yeast and mold = assay: Pour-plate culture on Potato-Dextrose Agar (PDA); format: cell-based; conditions: test concentrations from 10-50 ppm; 4 hour and 24 hour incubations
Method: (§1) All tests were conducted using heavy […] samples provided by a major U.S. corn wet milling facility. To confirm the concept that octanoic acid is selective in killing only yeast but not desirable bacteria, microbiological activity was assessed by examining separate culture plates prepared using two different agars. Plates prepared using Potato-Dextrose Agar (PDA) were used to assess the fate of yeast in the present of octanoic acid, as PDA is known to be specific to the propagation of yeast and mold. Plates prepared using Sabourad-Dextrose Agar (SDA) were used to determine the fate of “desired” bacteria as SDA is specific for both yeast and lactic acid producing bacteria. Several serial dilutions (10^1 to 10^7) of heavy […] samples were prepared for the pour plates at 0 ppm (control), 10 ppm, 25 ppm, and 50 ppm (active) of octanoic acid, then agitated in a 100° F. shaking water bath for 4 hours. Plates were similarly prepared using the same samples after agitation for 24 hours. All plates were incubated at […]. for 4 days before performing measurements. In addition to inspecting the plates for microbial activity, aliquots of each sample (after 4 hours and after 24 hours) were examined under a microscope for visual speciation.

[2] = system: yeast and lactic acid producing bacteria; assay: Pour-plate culture on Sabourad-Dextrose Agar (SDA); format: cell-based, lactobacillus; conditions: for Plate Showing activity, SDA: serial dilution
Method: as §1

SMILES: CCCCCCCC(=O)O [Octanoic Acid, Octanoic acid]
- Manometer readings ([1]; 10 ppm, t = 0 hours): 0.0 in H2O and 0 in H2O
- Manometer readings ([1]; 10 ppm, t = 1 hours): 0.0 in H2O
- Manometer readings ([1]; 10 ppm, t = 1.5 hours): 0.0 in H2O
- Manometer readings ([1]; 10 ppm, t = 2 hours): 0.0 in H2O
- Manometer readings ([1]; 10 ppm, t = 2.5 hours): 0.0 in H2O
- Manometer readings ([1]; 10 ppm, t = 3 hours): 0.0 in H2O
- Manometer readings ([1]; 10 ppm, t = 3.5 hours): 0.0 in H2O
- Manometer readings ([1]; 10 ppm, t = 4 hours): 0.0 in H2O
- Manometer readings ([1]; 10 ppm, t = 4.5 hours): 0.0 in H2O
- Manometer readings ([1]; 10 ppm, t = 5 hours): 0.0 in H2O
- Manometer readings ([1]; 10 ppm, t = 5.5 hours): 0.0 in H2O
- Manometer readings ([1]; 10 ppm, t = 6 hours): 0.0 in H2O
- Manometer readings ([1]; 10 ppm, t = 6.5 hours): 0.0 in H2O
- Manometer readings ([1]; 25 ppm, t = 0 hours): 0.0 in H2O
- Manometer readings ([1]; 25 ppm, t = 0.5 hours): 0.25 in H2O
- Manometer readings ([1]; 25 ppm, t = 1 hours): 0.0 in H2O
- Manometer readings ([1]; 25 ppm, t = 1.5 hours): 0.0 in H2O
- Manometer readings ([1]; 25 ppm, t = 2 hours): 0.0 in H2O
- Manometer readings ([1]; 25 ppm, t = 2.5 hours): 0.0 in H2O
- Manometer readings ([1]; 25 ppm, t = 3 hours): 0.0 in H2O
- Manometer readings ([1]; 25 ppm, t = 3.5 hours): 0.0 in H2O
- Manometer readings ([1]; 25 ppm, t = 4 hours): 0.0 in H2O
- Manometer readings ([1]; 25 ppm, t = 4.5 hours): 0.0 in H2O
- Manometer readings ([1]; 25 ppm, t = 5 hours): 0.0 in H2O
- Manometer readings ([1]; 25 ppm, t = 5.5 hours): 0.0 in H2O
- Manometer readings ([1]; 25 ppm, t = 6 hours): 0.0 in H2O
- Manometer readings ([1]; 25 ppm, t = 6.5 hours): 0.0 in H2O
- Manometer readings ([1]; 50 ppm, t = 0 hours): 0.0 in H2O
- Manometer readings ([1]; 50 ppm, t = 0.5 hours): 0.0 in H2O
- Manometer readings ([1]; 50 ppm, t = 1 hours): 0.0 in H2O
- Manometer readings ([1]; 50 ppm, t = 1.5 hours): 0.0 in H2O
- Manometer readings ([1]; 50 ppm, t = 2 hours): 0.0 in H2O
- Manometer readings ([1]; 50 ppm, t = 2.5 hours): 0.0 in H2O
- Manometer readings ([1]; 50 ppm, t = 3 hours): 0.0 in H2O
- Manometer readings ([1]; 50 ppm, t = 3.5 hours): 0.0 in H2O
- Manometer readings ([1]; 50 ppm, t = 4 hours): 0.0 in H2O
- Manometer readings ([1]; 50 ppm, t = 4.5 hours): 0.0 in H2O
- Manometer readings ([1]; 50 ppm, t = 5 hours): 0.0 in H2O
- Manometer readings ([1]; 50 ppm, t = 5.5 hours): 0.0 in H2O
- Manometer readings ([1]; 50 ppm, t = 6 hours): 0.0 in H2O
- Manometer readings ([1]; 50 ppm, t = 6.5 hours): 0.0 in H2O
- Effect on gas-producing microorganisms ([1]; all of the applied dosages (10, 25, 50 ppm), heavy steepwater): effectively reduces all gas-producing microorganisms
- Effect on yeast (yeast and mold): selectively kills the yeast
- Plate Showing activity, SDA ([2]; 10 ppm, sample incubation time 4 hrs): 10^2
- Plate Showing activity, SDA ([2]; 10 ppm, sample incubation time 24 hrs): 10^2
- Plate Showing activity, SDA ([2]; 25 ppm, sample incubation time 4 hrs): 10^1
- Plate Showing activity, SDA ([2]; 25 ppm, sample incubation time 24 hrs): 10^2
- Plate Showing activity, SDA ([2]; 50 ppm, sample incubation time 4 hrs): 10^2
- Plate Showing activity, SDA ([2]; 50 ppm, sample incubation time 24 hrs): 10^2
- Effect on activity of lactobacillus ([2]; test concentrations from 10-50 ppm, 4 hour and 24 hour incubations): do not measurably decrease the activity of lactobacillus
